Test results: publication PMC12122756, “Versatile biocatalyst: lipase from Streptomyces gobitricini for ester synthesis and detergent innovation” (Frontiers in Bioengineering and Biotechnology, 2025)
Where two headings read alike, the source gives them in different places. Each block holds one compound with its values, some of them ahead of it.

Tested on: T1, LipS.g
T1 construct: native extracellular enzyme purified from culture supernatant (heat, ammonium sulfate, Sephadex S-200); about 50 kDa SDS-PAGE, 53,262 Da MALDI-TOF
Experiment: pH-stat titrimetry, Lineweaver-Burk
Type: biochemical, Streptomyces gobitricini
Details: pH 9.0, 50°C, triglyceride emulsion, apparent Km
From the text: pH-stat titrimetry, Lineweaver-Burk on LipS.g

Km (read-out: Lipase activity (%) / TC4): 26.7 ± 0.063 mM
Compound: CCCC(=O)OCC(COC(=O)CCC)OC(=O)CCC [TC4, Tributyrin]

Km (read-out: TC8): 13.22 ± 0.106 mM
Compound: CCCCCCCC(=O)OCC(COC(=O)CCCCCCC)OC(=O)CCCCCCC [TC8, trioctanoin]

Km (read-out: TC18): 6.45 ± 0.289 mM
Compound: CCCCCCCC/C=C\CCCCCCCC(=O)OCC(COC(=O)CCCCCCC/C=C\CCCCCCCC)OC(=O)CCCCCCC/C=C\CCCCCCCC [TC18, triolein]
